Where two headings read alike, the source gives them in different places.
Tests used:
[1] = test system: TNF α-production of LPS-stimulated blood cells; assay: TNF-α production of lipopolysaccharide-stimulated human blood; format: cell-based
Method: (§1) The in vitro anti-inflammatory effect of ED and its analogs was assessed using LPS-induced TNF α-release under various conditions (diluted or undiluted whole human blood, preincubation with sera) to determine the intrinsic anti-inflammatory activity and systemic biological stability of the various compounds.
(§2) Commercially available human cytokine ELISA sets were used. TNF-α and GM-CSF sets were purchased from BD Pharmingen, San Diego, Calif., USA) and the IL-1β set was obtained from R&D Systems (Minneapolis, Minn., USA). ELISA was performed according to the manufacturer's protocol. Cell-free supernatants were tested in duplicate. Detection limits were 7.8 pg/ml for TNF-α, 4.7 pg/ml for GM-CSF, and 3.9 pg/ml for IL-1β. Results were expressed as the mean percentage of inhibition. IC50 values for test compounds were calculated by linear regression.
Peripheral blood from healthy donors was collected aseptically into sterile heparinized (Vacutainer™) tubes. Whole blood samples from each individual were parallel used both undiluted and after 5-fold dilution with RPMI-1640 medium in every experiment. Blood samples were distributed into 24-well plates and incubated with serial concentrations of the test compounds and 1 μg/ml lipopolysaccharide for 24 h at 37° C. in a CO2 thermostat. Controls were treated with lipopolysaccharide and the vehicle (PBS or 0.01% dimethyl sulfoxide in PBS). After incubation, cell-free supernatants were separated by centrifugation (1000 g for 10 minutes) and stored at −20° C. until determination of the amount of TNF-α. Test compounds were examined in blood samples from five different individuals. Two parallel cultures per treatments were run.

[2] = test system: mitogen-induced proliferation of PBMC; assay: Proliferation of lectin-stimulated peripheral mononuclear cells; format: cell-based, human; conditions: read-out: Prolif.**: Inhibition of mitogen-induced proliferation of PBMC
Method: Mononuclear cells from heparinized peripheral blood of healthy donors were isolated on suitable gradient (Optiprep solution, 1.077 g/ml). Serial dilutions of the test compounds (ranging from 2×10^−6 to 2×10^−8 M) were made in 100 μl of medium per well of sterile round-bottomed 96-well microtiter plate. Control wells contained culture medium only. 100 μl of cell suspension (10^6 cells/ml), containing concanavalin A (2 μg/ml) was added to each well. […] All cultures were done in triplicate. Microtiter plates were incubated for 72 h at 37° C., in 5% CO2 containing humidified atmosphere. For the last 18 h of incubation, [^3H]thymidine was added to the cells cultures, at 0.1 μCi/well final concentration. At the end of the incubation, cells were harvested to glass microfiber filter (Whatman G/F) and associated radioactivity was determined by liquid scintillation.

[3] = test system: TNF-α production of LPS-stimulated whole blood cells; assay: Stability: inhibition of TNF-α production with or without preincubation of the compounds in human plasma/serum; format: cell-based; conditions: for potency and softness compared with the corresponding compounds 11 and 15: see Table 1
Method: as §1, §2
Mononuclear cells from peripheral blood of healthy donors were isolated on Ficoll-gradient. One million cells in 0.9 ml of RPMI 1640 medium were distributed into 24-well plates and serial concentrations of the test compounds, made in fresh human serum either instantly or 18 h previously, were added (0.05 ml) together with the lipopolysaccharide (0.05 ml; 1 μg/ml final concentration). Preincubation of the compounds with serum was carried out at 37° C. Processing of the cultures was done as described above.

[4] = Stability in the presence of human plasma (HPLC/MS/MS); format: in vitro ADME; conditions: 37° C.
Method: Etiprednol dicloacetate (BNP-166) was added to freshly prepared human plasma of healthy donors at a concentration of 5 ng/ml, and were incubated at 37° C. for different intervals. After incubation the amount of the original compound (ethyl-17α-dichloroacetoxy-11β-hydroxyandostra-1,4-diene-3-one-17β-carboxylate), and one of its main metabolite, M-OH (17α,11β-dihydroxyandostra-1,4-diene-3-one-17β-carboxylate) were determined using an HPLC/MS/MS method. In brief: Fluocinolone acetonide served as internal standard (20 ng/ml), samples were extracted with a liquid-liquid extraction on Extrelut® columns, and were separated on a Purospher STAR 30×2 mm (3 μm) reversed phase column at a flow rate of 0.3 ml/min, using a linear gradient with a mobile phase system containing acetonitrile, water and acetic acid. Determination were performed on a triple quadrupole mass spectrometer (Perkin-Elmer SCIEX API 2000) supplied with an electrospray interface operated in the positive ionization mode. The multiple ion monitoring, parent→daughter ion transitions of 485.2→265.2, 375.2→265.2 and 495.2→337.2 were used for the quantification of etiprednol dicloacetate, its M-OH metabolite and for the internal standard respectively. Results are expressed as peak areas normalized to the internal control. Stability of the selected ED analogs (10, 11, 13, 17, 21, 25) were determined as described above for ED (3).

[5] = test system: ovalbumin sensitized and challenged Brown Norway rats; assay: Airway changes of ovalbumin sensitized and challenged Brown Norway rats, intratracheal administration; format: in vivo; conditions: for AHR (airways hyperreactivity) ED50: relative response to maximal acetylcholine dose
[6] = diluted blood 1:5, read-out: TNFα* a: Inhibition of TNF α-production of LPS-stimulated blood cells
[7] = undiluted blood, read-out: TNFα* b: Inhibition of TNF α-production of LPS-stimulated blood cells
[8] = non-preincubated in human plasma, read-out: Stability*** c: Inhibition of TNF-α production of LPS-stimulated whole blood cells
[9] = preincubated overnight in human plasma, read-out: Stability*** d: Inhibition of TNF-α production of LPS-stimulated whole blood cells
[10] = intratracheal, 2 hours prior challenge
[11] = intratracheal, 2 hours prior challenge, minimal statistically significantly effective dose

Compound: C[C@@H]1C[C@H]2[C@@H]3C[C@H](F)C4=CC(=O)C=C[C@]4(C)[C@@]3(F)[C@@H](O)C[C@]2(C)[C@@]1(OC(=O)C(Cl)Cl)C(=O)OCF [Compound 21, Fluoromethyl 17α-dichloroacetoxy-6α,9α-difluoro-11β-hydroxy-16α-methyl-3-oxoandrosta-1,4-diene-17β-carboxylate]
- IC50 [1, 6]: 1.4 nM
- IC50 [1, 7]: 4.5 nM
- IC50 [2]: 9 nM
- IC50 [3, 8]: 1.4 nM
- IC50 [3, 9]: 25 nM
- stability in the presence of human plasma [4]: particularly stable

Compound: CCOC(=O)[C@@]1(OC(=O)C(Cl)Cl)[C@@H](C)C[C@H]2[C@@H]3CCC4=CC(=O)C=C[C@]4(C)[C@@]3(F)[C@@H](O)C[C@@]21C [Compound 11, Ethyl 17α-dichloroacetoxy-9α-fluoro-16β-methyl-11β-hydroxy-3-oxoandrosta-1,4-diene-17β-carboxylate]
- IC50 [1, 6]: 1.7 ± 2 nM
- IC50 [1, 7]: 7.1 ± 4 nM
- IC50 [2]: 0.012 nM
- IC50 [3, 8]: 16 nM
- IC50 [3, 9]: 18 nM
- overall in vivo activity compared with the parent steroid ([5]; Table 2 parameters): does not represent significant improvement over ED, except in mucus production
- Edema formation ED50 [5, 10]: 93 µg/kg
- Eosinophilia BALF ED50 [5, 10]: >100 µg/kg
- Eosinophilia Peribronchial ED50 [5, 10]: 10.3 µg/kg
- Mucus production ED50 [5, 10]: <1 µg/kg
- Mucus production, second line (dose type not given) [5, 10]: <1 µg/kg
- AHR (airways hyperreactivity) MSED [5, 11]: 20.0 µg/kg
- Edema formation MSED [5, 11]: 0.5 µg/kg
- Eosinophilia Peribronchial MSED [5, 11]: 12.0 µg/kg
- AHR (airways hyperreactivity) ED50 [5, 10]: 19.4 µg/kg

Compound: CCC(=O)O[C@]1(C(=O)SCF)[C@H](C)C[C@H]2[C@@H]3C[C@H](F)C4=CC(=O)C=C[C@]4(C)[C@@]3(F)[C@@H](O)C[C@@]21C [FLU, fluticasone propionate]
- Edema formation ED50 [5, 10]: 2.8 µg/kg
- Eosinophilia BALF ED50 [5, 10]: >100 µg/kg
- Eosinophilia Peribronchial ED50 [5, 10]: 10.5 µg/kg
- Eosinophilia Perivascular ED50 [5, 10]: 45.0 µg/kg
- Mucus production ED50 [5, 10]: <1.0 µg/kg
- Mucus production, second line (dose type not given) [5, 10]: 1.0 µg/kg
- BALF protein ED50 ([5]; intratracheal, 2 hours prior challenge, broncho-alveolar lavage fluid): 11.2 µg/kg
- AHR (airways hyperreactivity) MSED [5, 11]: 0.1 µg/kg
- BALF protein MSED [5, 11]: 10.0 µg/kg
- Edema formation MSED [5, 11]: 1.0 µg/kg
- Eosinophilia BALF MSED [5, 11]: 10.0 µg/kg
- Eosinophilia Peribronchial MSED [5, 11]: 1.0 µg/kg
- Eosinophilia Perivascular MSED [5, 11]: 10.0 µg/kg
- AHR (airways hyperreactivity) ED50 [5, 10]: 0.14 µg/kg

Compound: C[C@@H]1C[C@H]2[C@@H]3C[C@H](F)C4=CC(=O)C=C[C@]4(C)[C@@]3(F)[C@@H](O)C[C@]2(C)[C@@]1(OC(=O)C(Cl)Cl)C(=O)OCCl [Compound 22, Chloromethyl 17α-dichloroacetoxy-6α,9α-difluoro-11β-hydroxy-16α-methyl-3-oxoandrosta-1,4-diene-17β-carboxylate]
- IC50 [1, 6]: 4 nM
- IC50 [1, 7]: 4 nM
- IC50 [2]: 0.02 nM

Compound: C[C@H]1C[C@H]2[C@@H]3CCC4=CC(=O)C=C[C@]4(C)[C@@]3(F)[C@@H](O)C[C@]2(C)[C@@]1(OC(=O)C(Cl)Cl)C(=O)OCCO [Compound 13, 2-Hydroxyethyl 17α-dichloroacetoxy-9α-fluoro-16β-methyl-11β-hydroxy-3-oxoandrosta-1,4-diene-17β-carboxylate]
- IC50 [1, 6]: 4.6 ± 6 nM
- IC50 [1, 7]: 5.8 ± 5 nM
- IC50 [3, 8]: 4.5 nM
- IC50 [3, 9]: 53.5 nM
- potency and softness compared with the corresponding compounds 11 and 15 [3]: more potent but softer
- stability in the presence of human plasma [4]: particularly stable

Compound: C[C@H]1C[C@H]2[C@@H]3C[C@H](F)C4=CC(=O)C=C[C@]4(C)[C@@]3(F)[C@@H](O)C[C@]2(C)[C@@]1(OC(=O)C(Cl)Cl)C(=O)OCCO [Compound 17, 2-Hydroxyethyl 6α,9α-difluoro-17α-dichloroacetoxy-16β-methyl-11β-hydroxy-3-oxoandrosta-1,4-diene-17β-carboxylate]
- IC50 [1, 6]: < 1 nM
- IC50 [1, 7]: 3.7 ± 2.6 nM
- IC50 [2]: 0.13 ± 0.02 nM
- IC50 [3, 8]: 1.9 nM
- IC50 [3, 9]: 19.2 nM
- potency and softness compared with the corresponding compounds 11 and 15 [3]: more potent but softer
- stability in the presence of human plasma [4]: particularly stable

Compound: CC1CC2C3CC(F)C4=CC(=O)C=CC4(C)C3(F)C(O)CC2(C)C1(OC(=O)C(Cl)Cl)C(=O)SCCl (stereo not drawn) [Compound 26, S-Chloromethyl 17α-dichloroacetoxy-6α,9α-difluoro-11β-hydroxy-16α-methyl-3-oxoandrosta-1,4-diene-17β-carbothioate]
- IC50 [1, 6]: 6 nM
- IC50 [1, 7]: 12 nM
- IC50 [2]: 3 nM

Compound: C[C@H]1C[C@H]2[C@@H]3CCC4=CC(=O)C=C[C@]4(C)[C@@]3(F)[C@@H](O)C[C@]2(C)[C@@]1(OC(=O)C(Cl)Cl)C(=O)OCCl [Compound 12, Chloromethyl 17α-dichloroacetoxy-9α-fluoro-16β-methyl-11β-hydroxy-3-oxoandrosta-1,4-diene-17β-carboxylate]
- IC50 [1, 6]: 20 ± 8 nM
- IC50 [1, 7]: 35 ± 12 nM
- IC50 [2]: 0.05 ± 0.12 nM

Compound: CCOC(=O)[C@@]1(OC(=O)C(Cl)Cl)[C@@H](C)C[C@H]2[C@@H]3C[C@H](F)C4=CC(=O)C=C[C@]4(C)[C@@]3(F)[C@@H](O)C[C@@]21C [Compound 15, Ethyl 6α,9α-difluoro-17α-dichloroacetoxy-16β-methyl-11β-hydroxy-3-oxoandrosta-1,4-diene-17β-carboxylate]
- IC50 [1, 6]: 2 nM
- IC50 [1, 7]: 14 nM
- IC50 [2]: < 0.01 nM

Compound: COC(=O)C1(OC(=O)C(Cl)Cl)C(C)CC2C3CC(F)C4=CC(=O)C=CC4(C)C3(F)C(O)CC21C (stereo not drawn) [Compound 14, Methyl 6α,9α-difluoro-17α-dichloroacetoxy-16β-methyl-11β-hydroxy-3-oxoandrosta-1,4-diene-17β-carboxylate]
- IC50 [1, 6]: 0.8 ± 0.6 nM
- IC50 [1, 7]: 1.7 ± 0.9 nM
- IC50 [2]: < 0.01 nM

Compound: COC(=O)[C@@]1(OC(=O)C(Cl)Cl)[C@@H](C)C[C@H]2[C@@H]3CCC4=CC(=O)C=C[C@]4(C)[C@@]3(F)[C@@H](O)C[C@@]21C [Compound 10, Methyl 17α-dichloroacetoxy-9α-fluoro-16β-methyl-11β-hydroxy-3-oxoandrosta-1,4-diene-17β-carboxylate]
- IC50 [1, 6]: 4 ± 3 nM
- IC50 [1, 7]: 20 ± 10 nM
- IC50 [2]: < 0.01 nM
- IC50 [3, 8]: 1.7 nM
- IC50 [3, 9]: 10.2 nM

Compound: C[C@H]1C[C@H]2[C@@H]3C[C@H](F)C4=CC(=O)C=C[C@]4(C)[C@@]3(F)[C@@H](O)C[C@]2(C)[C@@]1(OC(=O)C(Cl)Cl)C(=O)OCCl [Compound 16, Chloromethyl 6α,9α-difluoro-17α-dichloroacetoxy-16β-methyl-11β-hydroxy-3-oxoandrosta-1,4-diene-17β-carboxylate]
- IC50 [1, 6]: 0.4 nM
- IC50 [1, 7]: 5.1 ± 1.7 nM
- IC50 [2]: 26 ± 26 nM
